# From PMC12172596, “Unveiling New Triazoloquinoxaline‐Based PROTACs Designed for the Selective Degradation of the ncBAF Chromatin Remodeling Subunit BRD9” (Chemistry (Weinheim an Der Bergstrasse, Germany), 2025)
# Like-named read-outs stand apart in the source and are kept apart here.
# What was measured:
# [1] = molecular target: T1, BRD9 (Homo sapiens, UniProt Q9H8M2); test: Western blotting of BRD9 protein levels in U937 cells; assay type: cell-based; conditions: for BRD9 protein levels (degradation): different concentrations
# T1 construct: WB analysis showing BRD9 protein levels following 48‐hours treatments with compounds 2−8; endogenous in cells; host or cells: U937 (ATCC)
# T1 sequence (Q9H8M2 1-597): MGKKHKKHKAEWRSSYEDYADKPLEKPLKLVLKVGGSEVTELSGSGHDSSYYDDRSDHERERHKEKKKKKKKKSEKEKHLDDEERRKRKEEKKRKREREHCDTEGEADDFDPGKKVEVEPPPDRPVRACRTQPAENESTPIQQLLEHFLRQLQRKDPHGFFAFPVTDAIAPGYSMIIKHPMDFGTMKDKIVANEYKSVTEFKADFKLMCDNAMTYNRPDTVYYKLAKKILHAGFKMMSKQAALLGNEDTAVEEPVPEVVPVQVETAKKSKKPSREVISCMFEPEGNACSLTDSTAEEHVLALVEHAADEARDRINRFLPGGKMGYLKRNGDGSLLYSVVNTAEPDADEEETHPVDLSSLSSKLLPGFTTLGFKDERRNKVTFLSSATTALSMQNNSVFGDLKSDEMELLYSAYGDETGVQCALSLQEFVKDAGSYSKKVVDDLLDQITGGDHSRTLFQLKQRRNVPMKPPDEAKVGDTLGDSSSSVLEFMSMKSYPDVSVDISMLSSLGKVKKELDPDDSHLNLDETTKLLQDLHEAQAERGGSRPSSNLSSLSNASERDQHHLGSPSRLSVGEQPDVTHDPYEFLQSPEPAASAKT
# Description: Cells have been authenticated by STR profiling.
# Western blot was performed according to the previous protocol.^[ [71], [72] ^] U937 AML cells were pelleted and then lysed in RIPA buffer (1% Triton X‐100, 0.1% SDS, 150 mM NaCl, 1 mM EDTA pH 8, 10 mM Tris‐HCl pH 8) added with 1% protease inhibitor cocktail. The resulting lysate was subjected to centrifugation for 15 minutes at 4 °C. […] The protein signal was visualized by enhanced chemiluminescence method (ECL) through the Bio‐Rad Chemidoc machine. ImageJ software was used for densitometric analysis.
# [2] = test system: U937 cells; test: CCK8 viability assay in U937 cells; assay type: cell-based, human; conditions: for U937 cell viability: CCK8, 48 hours treatment
# Description: (§1) The AML U937 cell line (ATCC) was grown in Roswell Park Memorial Institute (RPMI) 1640 Medium with the addition of 10% fetal bovine serum (FBS), 1% L‐glutamine, and 1% antibiotics (100 U/mL penicillin, 100 µg/mL streptomycin, and 250 ng/mL amphotericin‐B). Cells have been authenticated by STR profiling.
# CCK8 was purchased from Elabscience and used according to manufacturer instructions, briefly: 100 µL of cell suspension was added to each well using a 96‐well microplate. Cells were then incubated at 37 °C, in a 5% CO2 incubator for 24 hours. Compounds were added to the cells and incubated for an additional 48 hours at 37 °C. Next, 10 µL of CCK‐8 Buffer was added to each well, and cells were incubated again for 4 hours. Next, 450 nm absorbance was measured using a TECAN microplate reader.
# [3] = test system: U937 cells; test: Proliferation assay (trypan blue exclusion cell counting) in U937 cells; assay type: cell-based, human; conditions: time-point treatment
# Description: as §1
# Trypan blue exclusion cell counting has been used to trace the number of cells over the different times of analysis.
# [4] = Human plasma stability; assay type: in vitro ADME; conditions: incubation up to 120 minutes, 37 °C, read-out: compound recovery after incubation with human plasma
# Description: The plasma stability of compounds 2 and 9 was evaluated. Briefly, the plasma was equilibrated at 37 °C, and biotransformation was initiated by adding the compound solution and mixing. At each specified time point (0, 60, and 120 minutes), test compounds were extracted into 200 µL ice‐cold methanol to stop degradation. Tolbutamide was added during the quenching phase. Finally, the concentration of the test compound was monitored by LC‐MS. The percentage of the test compound remaining at each individual time point was reported. The results are reported as mean ± SD from three independent experiments. Procaine and procainamide were used as controls.
# [5] = molecular target: T2, BRD7 (Homo sapiens, UniProt Q9NPI1); test: Western blotting of BRD7 protein levels in U937 cells; assay type: cell-based; conditions: 48 hours treatment, western blot
# T2 construct: WB analysis showing BRD9 and BRD7 protein levels following 48‐hours treatment with compound 9; endogenous in cells; host or cells: U937 (ATCC)
# T2 sequence (Q9NPI1 1-651): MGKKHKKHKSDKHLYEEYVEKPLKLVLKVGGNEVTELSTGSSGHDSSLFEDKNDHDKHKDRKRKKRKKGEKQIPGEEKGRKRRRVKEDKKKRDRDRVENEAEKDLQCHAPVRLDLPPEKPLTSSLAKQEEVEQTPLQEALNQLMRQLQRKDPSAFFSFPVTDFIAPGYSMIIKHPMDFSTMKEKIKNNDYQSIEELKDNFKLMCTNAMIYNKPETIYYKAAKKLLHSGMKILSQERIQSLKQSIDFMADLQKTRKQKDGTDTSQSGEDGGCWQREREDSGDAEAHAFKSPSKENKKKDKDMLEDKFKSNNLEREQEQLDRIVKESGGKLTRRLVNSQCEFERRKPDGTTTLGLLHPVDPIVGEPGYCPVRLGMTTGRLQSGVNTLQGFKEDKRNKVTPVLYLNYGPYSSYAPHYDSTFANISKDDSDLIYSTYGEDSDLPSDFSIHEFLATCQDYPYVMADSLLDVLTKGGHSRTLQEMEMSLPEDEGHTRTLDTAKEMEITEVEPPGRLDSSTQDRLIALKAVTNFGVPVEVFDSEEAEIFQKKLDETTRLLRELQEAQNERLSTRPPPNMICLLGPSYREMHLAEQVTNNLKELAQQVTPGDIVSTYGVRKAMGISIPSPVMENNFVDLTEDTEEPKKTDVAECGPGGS
# Description: as §1
# Western blot was performed according to the previous protocol.^[ [71], [72] ^] U937 AML cells were pelleted and then lysed in RIPA buffer (1% Triton X‐100, 0.1% SDS, 150 mM NaCl, 1 mM EDTA pH 8, 10 mM Tris‐HCl pH 8) added with 1% protease inhibitor cocktail. The resulting lysate was subjected to centrifugation for 15 minutes at 4 °C. After that, the supernatant was collected and supplemented with 6X Laemmli buffer (0.217 M Tris‐HCl pH 8.0, 52.17% SDS, 17.4% glycerol, 0.026% bromophenol blue, 8.7% beta‐mercapto‐ethanol) and boiled for 3 minutes at 99 °C,25 µg of protein extract were resolved by SDS‐polyacrylamide gel electrophoresis and then transferred on nitrocellulose membrane (Bio‐Rad). The membrane was probed with anti‐BRD9 (Bethyl Laboratories #A303‐781A), anti‐BRD7 (Invitrogen #PA5‐40379), anti‐GADPH (Elabscience # E‐AB‐40337), and anti‐α‐tubulin (Elabscience # E‐AB‐20036). The protein signal was visualized by enhanced chemiluminescence method (ECL) through the Bio‐Rad Chemidoc machine. ImageJ software was used for densitometric analysis. […]
# [6] = molecular target: T3, BRD9 (BD1) (Homo sapiens, UniProt Q9H8M2); test: AlphaScreen assay, BRD9 (BD1) Inhibitor Screening Assay Kit; assay type: binding; conditions: for IC50: AlphaScreen, read-out: IC50, BRD9 binding
# T3 construct: BSP‐32519
# T3 sequence (Q9H8M2 136-240 limits assumed): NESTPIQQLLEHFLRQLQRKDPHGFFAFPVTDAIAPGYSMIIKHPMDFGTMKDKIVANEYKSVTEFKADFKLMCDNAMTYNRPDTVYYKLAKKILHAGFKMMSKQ
# Description: The evaluation of the interaction between synthesized compounds and BRD9 was conducted using AlphaScreen Technology using an Enspire microplate analyzer (Perkin Elmer)^[ [70] ^] and the BRD9 (BD1) Inhibitor Screening Assay Kit (BSP‐32519) as reported by Colarusso et al.^[ [38], [39] ^] IC50 values were calculated by GraphPad Prism10 software.
# [7] = Microsomal stability in human liver microsomes (HLMs); assay type: in vitro ADME; conditions: LC-MS/MS analysis
# Description: In our assay we followed the loss of the test compounds over time under CYP‐mediated metabolic pathways. The extent of hepatic metabolism allowed us the determination of different pharmacokinetic parameters such as in vitro t1/2, CLint, in vitro and CLint, in vivo. In vitro t1/2 and CLint, in vitro of test compounds after liver microsomes incubation were calculated according to “well‐stirred” model. In the “well‐stirred” model, the liver is represented by a single compartment, where the unbound concentration of a drug leaving the liver is in equilibrium with the intracellular unbound concentration in the hepatocytes.^[ [53] ^] Predicted CLint, invivo values were determined using human PBSF.^[ [54] ^]
# The microsomal stability of compounds 2 and 9 was assessed according to the previously described protocol.^[ [73] ^] […] The supernatants were collected and analyzed by LC‐MS/MS. The extent of metabolism is quantified as a percentage of the parent compound turnover. […] In vitro half‐lives (t1/2) were calculated using the expression t1/2 = 0.693/b, where b is the slope found in the linear fit of the natural logarithm of the fraction remaining of the parent compound versus incubation time. Microsomal intrinsic clearance was calculated as CLint , in vitro = (1000) × (0.693/t1/2)/0.5. […]
# [8] = molecular target: T3, BRD9 (BD1); design: method as in PMID 34823196; conditions: previously disclosed; read-out: IC50, affinity for BRD9; cited from earlier work
# [9] = 48 hours treatment, western blot
smiles,measurement,setting,value
CCc1nnc2c(Nc3cccc(NC(=O)CCOCCOCCNc4cccc5c4C(=O)N(C4CCC(=O)NC4=O)C5=O)c3)nc3ccccc3n12 (stereo not drawn) [compound 6],BRD9 protein levels (degradation),[1]; [9],no effect was observed
same,U937 cell viability,[2],did not observe variation in cell viability
CCc1nnc2c(Nc3cccc(NC(=O)CCCCCCNc4cccc5c4C(=O)N(C4CCC(=O)NC4=O)C5=O)c3)nc3ccccc3n12 (stereo not drawn) [compound 4],BRD9 protein levels (degradation),[1]; [9],no effect was observed
same,U937 cell viability,[2],did not observe variation in cell viability
CCc1nnc2c(Nc3cccc(NC(=O)CCOCCOCCOCCNc4cccc5c4C(=O)N(C4CCC(=O)NC4=O)C5=O)c3)nc3ccccc3n12 (stereo not drawn) [compound 7],BRD9 protein levels (degradation),[1]; [9],no effect was observed
same,U937 cell viability,[2],did not observe variation in cell viability
CCc1nnc2c(Nc3cccc(NC(=O)CCOCCNc4cccc5c4C(=O)N(C4CCC(=O)NC4=O)C5=O)c3)nc3ccccc3n12 (stereo not drawn) [compound 5],U937 cell viability,[2],strong reduction of cell viability
CCCCc1nnc2c(Nc3cccc(NC(=O)CCCCCCOCCOCC(=O)N[C@H](C(=O)N4C[C@H](O)C[C@H]4C(=O)NCc4ccc(-c5scnc5C)cc4)C(C)(C)C)c3)nc3ccccc3n12 [compound 9],BRD9 protein levels with proteasome inhibitor MG132,[1]; 48 hours treatment with or without MG132 (25 µM for 6 hours),MG132 treatment rescued BRD9 depletion
same,concentration at which BRD9 degradation is effectively induced,[1]; [9],1 µM
same,AML cell proliferation,[3],negatively affected AML cell proliferation
same,U937 cell viability,[2],significantly impaired leukemic cell viability
same,ability to reduce leukemic cell viability and AML cell proliferation compared with dBRD9,"[2]; U937 cells, versus reference dBRD9",superior ability to reduce leukemic cell viability and AML cell proliferation
same,recovery at 120 min,[4],≥ 90%
same,BRD7 protein levels,[5],not interfering with BRD7 protein levels
same,IC50,[6],660 ± 40 nM
same,fold higher binding affinity to BRD9 compared to degrader 2,[6]; compared to compound 2,4.5 fold
same,primary metabolites after incubation with HLMs,[7],dealkylation reactions
CCc1nnc2c(Nc3cccc(NC(C)=O)c3)nc3ccccc3n12 [compound 1],BRD9 protein levels (degradation),[1]; [9],only a slight reduction in BRD9 protein levels
same,IC50,[8],4200 ± 1920 nM
same,U937 cell viability,[2],minimally affected
CCc1nnc2c(Nc3cccc(NC(=O)CCCCCCOCCOCC(=O)Nc4cccc5c4C(=O)N(C4CCC(=O)NC4=O)C5=O)c3)nc3ccccc3n12 (stereo not drawn) [compound 8],BRD9 protein levels (degradation),[1]; [9],no effect was observed
same,U937 cell viability,[2],did not observe variation in cell viability
CCc1nnc2c(Nc3cccc(NC(=O)CCCCCCOCCOCC(=O)N[C@H](C(=O)N4C[C@H](O)C[C@H]4C(=O)NCc4ccc(-c5scnc5C)cc4)C(C)(C)C)c3)nc3ccccc3n12 [compound 2],U937 cell viability,[2],strong reduction of cell viability
same,recovery at 120 min,[4],≥ 90%
same,residual binding of histone H4,[6]; 10 µM ligand concentration,21.6 ± 0.3%
same,IC50,[6],2970 ± 250 nM
same,primary metabolites after incubation with HLMs,[7],dealkylation reactions
